# Where two headings read alike, the source gives them in different places.
# Columns and labels:
# [1] = system: washed human platelets; assay: Collagen-induced platelet aggregation; format: cell-based; conditions: Platelet; washed human platelets, collagen (5 μg/mL)
# In short: (§1)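 Washed platelets from ACD-anticoagulated blood of healthy donors, stirred at 1200 rpm, 37 °C in a turbidimetric aggregometer. Aggregation triggered by U46619 or collagen, scored as maximal rise in light transmission.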
# [2] = target: T1, ERp57 (PDIA3) (Homo sapiens, UniProt P30101); assay: ERp57 reductase assay (Di-E-GSSG); format: biochemical
# T1 sequence (P30101 25-505): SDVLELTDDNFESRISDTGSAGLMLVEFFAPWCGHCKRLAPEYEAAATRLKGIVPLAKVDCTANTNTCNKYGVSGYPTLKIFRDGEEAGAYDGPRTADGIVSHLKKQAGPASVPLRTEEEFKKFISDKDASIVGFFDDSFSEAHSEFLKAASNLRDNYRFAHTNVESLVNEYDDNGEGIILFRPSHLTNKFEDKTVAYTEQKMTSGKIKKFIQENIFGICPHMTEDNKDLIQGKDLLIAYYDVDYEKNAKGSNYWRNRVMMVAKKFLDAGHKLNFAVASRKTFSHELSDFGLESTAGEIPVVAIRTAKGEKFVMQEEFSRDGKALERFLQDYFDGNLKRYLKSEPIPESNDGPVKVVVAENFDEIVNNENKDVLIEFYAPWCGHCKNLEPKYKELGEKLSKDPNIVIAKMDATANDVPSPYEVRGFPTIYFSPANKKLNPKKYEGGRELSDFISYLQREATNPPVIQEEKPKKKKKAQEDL
# Description: In addition to PDI, ERp57 (PDIA3) and ERp72 (PDIA4) are two other major members of the PDI family in both platelets and A549 cells.[62],[63]
# [3] = system: multiple myeloma RPMI8226; assay: Cell viability, resazurin assay, RPMI8226; conditions: for IC50: Homo sapiens
# Procedure: (§2) Cells were maintained in a humidified incubator at 37 °C in 5% CO2, and cell viability was determined with the resazurin assay (Cayman Chemical, USA) after the incubation with compounds for indicated concentrations and times or DMSO as control.[72]
# [4] = Parallel artificial membrane permeability assay (PAMPA); conditions: 50 μM, 25 ℃, 3 h, verapamil = 100%, ranitidine = 0%
# In short: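 Donor wells held 50 μM compound (DMSO <1% v/v, diluted from 10 mM stocks) in buffer; filter membrane coated with 2% w/v DOPC in n-dodecane. Sandwich incubated 3 h at 25 ℃, then donor and acceptor drug amounts quantified by UV spectra (220–400 nm) against reference standards.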
# [5] = target: purified human recombinant PDI (rPDI) (Homo sapiens, UniProt P07237); assay: Recombinant PDI reductase activity (Di-E-GSSG assay)
# Sequence of purified human recombinant PDI (rPDI) (P07237 18-508): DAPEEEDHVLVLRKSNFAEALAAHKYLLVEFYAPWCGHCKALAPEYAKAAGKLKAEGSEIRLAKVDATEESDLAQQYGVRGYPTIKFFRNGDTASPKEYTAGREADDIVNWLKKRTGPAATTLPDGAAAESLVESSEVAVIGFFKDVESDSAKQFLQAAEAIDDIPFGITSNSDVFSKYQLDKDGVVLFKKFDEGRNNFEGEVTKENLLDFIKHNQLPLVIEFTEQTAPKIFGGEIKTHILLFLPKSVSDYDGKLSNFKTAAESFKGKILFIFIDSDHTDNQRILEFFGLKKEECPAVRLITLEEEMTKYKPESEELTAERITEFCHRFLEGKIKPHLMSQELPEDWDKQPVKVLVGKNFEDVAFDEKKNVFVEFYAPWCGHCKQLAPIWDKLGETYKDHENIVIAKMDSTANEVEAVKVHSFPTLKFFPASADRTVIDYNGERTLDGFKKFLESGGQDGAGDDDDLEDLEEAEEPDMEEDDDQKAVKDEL
# Procedure: In this assay, a nonfluorescent substrate, dieosin glutathione disulfide (Di-E-GSSG), was reduced into a fluorescent product eosin-glutathione (E-GSH) by platelet surface PDI in the presence of 5 μM dithiothreitol (DTT).
# [6] = system: glioma U87; assay: Cell viability, resazurin assay, U87; conditions: Homo sapiens, 24 h, read-out: U87 IC50
# Procedure: as §2
# [7] = system: washed human platelets coincubated with A549 cancer cells; assay: Tumor cell-induced platelet secretion (PDGF, ATP); format: cell-based
# Procedure: (a) Washed human platelets were coincubated with A549 cancer cells under the same conditions as described in Figure 4. Secretion of PDGF and ATP were determined with the enzyme-linked immunosorbent assay (ELISA) and bioluminescent assay, respectively. (b) A549 cancer cells were coincubated with washed human platelets at 37 °C and 5% CO2 in a cell culture incubator for 48 h. After washing with PBS, the numbers of viable cancer cells were determined by trypan blue exclusion. Data are mean ± SEM of at least three independent experiments.
# Washed human platelets were coincubated with cancer cells under the same conditions as described in the TCIPA assay. After a 25 min incubation in the aggregometer, the samples were centrifuged at 13,000g for 1 min. The concentrations of PDGF-BB and ATP in the supernatants were determined using an ELISA kit (Abcam, Cambridge, UK) and an ATP bioluminescent assay kit (Sigma, MO, USA), respectively.[52]
# [8] = system: human vascular endothelial EA.hy926 cells; assay: Cell viability, resazurin assay, EA.hy926; conditions: EA.hy 926, 24 h, read-out: EAhy926 IC50
# Procedure: as §2
# [9] = system: lung cancer A549; assay: Cell viability, resazurin assay, A549; conditions: Homo sapiens, A549, 24 h, read-out: A549 IC50
# Procedure: as §2
# [10] = system: washed human platelets; assay: U46619-induced platelet aggregation; format: cell-based; conditions: Platelet; washed human platelets, U46619 (1 μM)
# In short: as §1
structure (smiles),measurement,setting,value
"CC(=O)OC1O[C@H](CSC2=CC(=O)c3cccc(O)c3C2=O)[C@@H](OC(C)=O)C(OC(C)=O)[C@H]1OC(C)=O (stereo in doubt) [Compound 18, 2-(1,2,3,4-Tetra-O-acetyl-6-deoxy-6-thio-α-D-glucopyranose)-8-hydroxynaphthalene-1,4-dione]",IC50,[1],560 ± 170 nM
same,concentrations inhibiting ERp57 and ERp72 relative to PDI,"[2]; ERp57 and ERp72 together, fold higher than required to inhibit PDI",4 to 7 fold
same,IC50,"[2]; human recombinant, Di-E-GSSG",6980 ± 1780 nM
same,"S.I. (EAhy926/RPMI8226), selectivity index",[3]; 24 h IC50 ratio,12.8
same,IC50,"[3]; RPMI-8226, 24 h, read-out: RPMI8226 IC50",570 ± 10 nM
same,IC50,"[3]; RPMI-8226, 72 h, read-out: RPMI8226 IC50, 72 h",61 nM
same,Permeability (%),[4],10.64%
same,IC50,[5],1870 ± 560 nM
same,IC50,[6],> 20000 nM
same,tumor cell-induced increase in extracellular PDGF and ATP (platelet secretion),[7],reduced
same,IC50,[8],7270 ± 80 nM
same,IC50,[9],36800 ± 1930 nM
same,IC50,[10],950 ± 100 nM

# Reference: article PMC10945480 (Journal of Medicinal Chemistry, 2024)
